Assay: Solubility in hydrophobic anhydrous, glycol free, antiperspirant free stick formulations
Type: physicochemical
Source text: Additional considerations regarding exemplary Vitamin B5 derivatives may apply. For example, in order to deliver Vitamin B5 (or a derivative thereof) from an anhydrous, hydrophobic, glycol free and antiperspirant free cosmetic stick, a corresponding matrix soluble form or derivative of Vitamin B5 must be used to achieve the desired benefits of hair softening, shave bump reduction and wound healing from shave cut damage. For example, if an incompatible or insoluble form of Vitamin B5 is used, such as panthenol, this will not form a homogenous one phase solution when the ingredients are blended and heated together from the melt.
As such, the Vitamin B5 derivative utilized should be soluble in the anhydrous, hydrophobic, glycol free and antiperspirant free matrix.

Q: With `CCOCC(C)(C)C(O)C(=O)NCCCO` (stereo not shown) [Panthenyl Ethyl Ether] as the compound, how does the “Solublility in hydrophobic Anhydrous, glycol free, antiperspirant free Stick formulations” value read?
A: Soluble

Reference: US20160175214A1, “ANHYDROUS COSMETIC COMPOSITION FOR TOPICAL APPLICATION” (The Procter & Gamble Company, priority 2014, published 2016)
